Earlier results in US9211305B2, “Pharmaceutical compositions with glycosaminoglycans and use thereof in the treatment of chronic ulcers” (LABORATORIOS FARMACEUTICOS ROVI S.A., priority 2008, dated 2015).

What was measured:
[1] = in vivo; cited from earlier work
factor Xa = conditions: commercial products; cited from earlier work
[2] = Ph. Eur. 6th Edition; cited from earlier work

Substance	Plasma Half-Life [1] [h]	Plasma Half-Life Range [1] [h]	anti-factor Xa activity (factor Xa)	Anti-coagulating activity [2] [IU/mg]
Dalteparin	2.5	2.3 to 2.8	110-210 IU/mg	
Enoxaparin	4.2	4.0 to 4.4	90-125 IU/mg	
Heparin Sodium				≥ 150
Nadroparin	3.7	3.7		
Tinzaparin	3.0	3.0	70-120 IU/mg	
